Results as given in PubChem BioAssay AID248 (DTP/NCI, 2004).
Several values for one entry are separate records, joined by “and”; a condition that tells them apart may be missing. Equal values may be shown once. Inconclusive results and toxic doses are left out. Rule as the data show it: active = T/C of 150% or more; inactive = T/C below 125%.

System: L1210 leukemia ip in BDF1 mice, survival T/C
Experiment: NCI In Vivo Anticancer Drug Screen. Data for tumor model L1210 Leukemia (intraperitoneal) in B6D2F1 (BDF1) mice
Details: endpoint: mean survival time, higher = longer survival
In short: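 Ratio derived from survival: compound-dosed mice over vehicle-dosed mice, all bearing a transplantable tumor.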

[1] = dose: 25.0 mg/kg/injection, schedule: Q04DX003 (ip), vehicle: Klucel (hydroxypropylcellulose) (HPC)
[2] = dose: 50.0 mg/kg/injection, schedule: Q04DX003 (ip), vehicle: Klucel (hydroxypropylcellulose) (HPC)
[3] = dose: 100.0 mg/kg/injection, schedule: Q04DX003 (ip), vehicle: Klucel (hydroxypropylcellulose) (HPC)
[4] = dose: 200.0 mg/kg/injection, schedule: Q04DX003 (ip), vehicle: Klucel (hydroxypropylcellulose) (HPC)
[5] = dose: 400.0 mg/kg/injection, schedule: Q04DX003 (ip), vehicle: Klucel (hydroxypropylcellulose) (HPC)
[6] = dose: 25.0 mg/kg/injection, schedule: Q04DX002 (ip), vehicle: Klucel (hydroxypropylcellulose) (HPC)
[7] = dose: 50.0 mg/kg/injection, schedule: Q04DX002 (ip), vehicle: Klucel (hydroxypropylcellulose) (HPC)
[8] = dose: 100.0 mg/kg/injection, schedule: Q04DX002 (ip), vehicle: Klucel (hydroxypropylcellulose) (HPC)
[9] = dose: 50.0 mg/kg/injection, schedule: Q01DX009 (ip), vehicle: Klucel (hydroxypropylcellulose) (HPC)
[10] = dose: 100.0 mg/kg/injection, schedule: Q01DX009 (ip), vehicle: Klucel (hydroxypropylcellulose) (HPC)
[11] = dose: 200.0 mg/kg/injection, schedule: Q01DX009 (ip), vehicle: Klucel (hydroxypropylcellulose) (HPC)
[12] = dose: 400.0 mg/kg/injection, schedule: Q01DX009 (ip), vehicle: Klucel (hydroxypropylcellulose) (HPC)
[13] = dose: 100.0 mg/kg/injection, schedule: Q04DX003 (ip), vehicle: saline
[14] = dose: 200.0 mg/kg/injection, schedule: Q04DX003 (ip), vehicle: saline
[15] = dose: 400.0 mg/kg/injection, schedule: Q04DX003 (ip), vehicle: saline
[16] = dose: 100.0 mg/kg/injection, schedule: Q01DX001 (ip), vehicle: carboxymethylcellulose (CMC)
[17] = dose: 200.0 mg/kg/injection, schedule: Q01DX001 (ip), vehicle: carboxymethylcellulose (CMC)

Measured: T/C

CC1=C(Cl)C(Cl)(Cl)C(=O)C(=O)C1(Cl)Cl
inactive: dose: 6.25 mg/kg/injection, schedule: Q01DX009 (ip), vehicle: saline sonified 100 % of control | dose: 6.25 mg/kg/injection, schedule: Q04DX003 (ip), vehicle: Klucel (hydroxypropylcellulose) (HPC) 100 % of control | dose: 12.5 mg/kg/injection, schedule: Q01DX009 (ip), vehicle: saline sonified 102 % of control | dose: 12.5 mg/kg/injection, schedule: Q04DX003 (ip), vehicle: Klucel (hydroxypropylcellulose) (HPC) 95 % of control | dose: 25.0 mg/kg/injection, schedule: Q01DX009 (ip), vehicle: saline sonified 92 % of control | [1] 95 % of control

CC1CN1CCC(=O)Nc1ccc(Cl)c(Cl)c1 (stereo unspecified)
inactive: [2] 97 % of control | [3] 105 % of control | [4] 100 % of control | [5] 106 % of control

Cc1cc(C)c2c(c1)CC2NC(=O)Cc1ccccc1 (stereo unspecified)
inactive: [6] 116 % of control | [7] 89 % of control | [8] 92 % of control

COc1cc([N+](=O)[O-])c2ncccc2c1
inactive: [9] 102 % of control | [10] 105 % of control | [3] 94 % of control | [11] 104 % of control | [4] 91 % of control | [12] 115 % of control | [5] 104 % of control

COc1cc(Cc2cc(OC)c(OC)cc2[N+](=O)[O-])c([N+](=O)[O-])cc1OC
inactive: [13] 108 % of control | [14] 108 % of control | [15] 120 % of control

CC(=O)OC1C=CN(C(C)=O)C(SC23CC4CC(CC(C4)C2)C3)C1OC(C)=O (stereo unspecified)
inactive: [3] 92 % of control | [4] 100 % of control | [5] 92 % of control

Cc1cccc(C)c1NC(=S)NNC(=O)c1ccncc1
inactive: dose: 100.0 mg/kg/injection, schedule: Q01DX009 (ip), vehicle: saline with Tween-80 97 % of control | dose: 100.0 mg/kg/injection, schedule: Q04DX002 (ip), vehicle: saline with Tween-80 101 % of control | dose: 200.0 mg/kg/injection, schedule: Q04DX002 (ip), vehicle: saline with Tween-80 96 % of control | dose: 400.0 mg/kg/injection, schedule: Q01DX009 (ip), vehicle: saline with Tween-80 100 % of control | dose: 400.0 mg/kg/injection, schedule: Q04DX002 (ip), vehicle: saline with Tween-80 101 % of control

c1ccc(N2CCN(c3ccccc3)C2C2CO2)cc1 (stereo unspecified)
inactive: [13] 95 % of control | [14] 97 % of control | [15] 98 % of control

CCC(CC)(C(=O)O)C(=O)O
inactive: [1] 93 % of control | [2] 90 % of control | [3] 96 % of control and 88 % of control

CCCCCCNC(C)(C)[P+](=O)O
inactive: [13] 105 % of control | [14] 108 % of control | [15] 102 % of control

C/C(=N\OCc1cc2c(cc1Cl)OCO2)C(=O)O
inactive: dose: 100.0 mg/kg/injection, schedule: Q04DX003 (ip), vehicle: saline with Tween-80 100 % of control | dose: 200.0 mg/kg/injection, schedule: Q04DX003 (ip), vehicle: saline with Tween-80 99 % of control | dose: 400.0 mg/kg/injection, schedule: Q04DX003 (ip), vehicle: saline with Tween-80 91 % of control

OCC1OC(n2ncc3c(Cl)ccnc32)C(O)C1O (stereo unspecified)
inactive: dose: 50.0 mg/kg/injection, schedule: Q01DX005 (ip), vehicle: other 91 % of control

CC(=O)OC1(C(C)=O)CCC2C3CC(C)(O)C4=CC(=O)CCC4(C)C3CCC21C (stereo unspecified)
inactive: dose: 25.0 mg/kg/injection, schedule: Q01DX009 (ip), vehicle: Klucel (hydroxypropylcellulose) (HPC) 97 % of control | [9] 95 % of control | [10] 103 % of control | [11] 101 % of control

CCCNC(=O)NCCN(CC)c1ccccc1
inactive: [16] 97 % of control | dose: 100.0 mg/kg/injection, schedule: Q01DX009 (ip), vehicle: carboxymethylcellulose (CMC) 93 % of control and 101 % of control | dose: 100.0 mg/kg/injection, schedule: Q04DX002 (ip), vehicle: carboxymethylcellulose (CMC) 94 % of control and 97 % of control | dose: 100.0 mg/kg/injection, schedule: Q04DX003 (ip), vehicle: carboxymethylcellulose (CMC) 100 % of control | [17] 96 % of control | dose: 200.0 mg/kg/injection, schedule: Q01DX009 (ip), vehicle: carboxymethylcellulose (CMC) 104 % of control and 87 % of control | dose: 200.0 mg/kg/injection, schedule: Q04DX002 (ip), vehicle: carboxymethylcellulose (CMC) 105 % of control and 87 % of control | dose: 200.0 mg/kg/injection, schedule: Q04DX003 (ip), vehicle: carboxymethylcellulose (CMC) 109 % of control | dose: 400.0 mg/kg/injection, schedule: Q01DX001 (ip), vehicle: carboxymethylcellulose (CMC) 96 % of control | dose: 400.0 mg/kg/injection, schedule: Q01DX009 (ip), vehicle: carboxymethylcellulose (CMC) 93 % of control and 103 % of control | dose: 400.0 mg/kg/injection, schedule: Q04DX002 (ip), vehicle: carboxymethylcellulose (CMC) 93 % of control and 97 % of control | dose: 400.0 mg/kg/injection, schedule: Q04DX003 (ip), vehicle: carboxymethylcellulose (CMC) 102 % of control

O=C(OCCCCCOC(=O)c1ccccc1O)c1ccccc1O
inactive: dose: 100.0 mg/kg/injection, schedule: Q01DX001 (ip), vehicle: other 91 % of control | [3] 92 % of control | dose: 200.0 mg/kg/injection, schedule: Q01DX001 (ip), vehicle: other 88 % of control | [4] 91 % of control | [5] 89 % of control

Cc1ccc(S(=O)(=O)OC2CC3CCC2C3)cc1 (stereo unspecified)
inactive: dose: 100.0 mg/kg/injection, schedule: Q01DX009 (ip), vehicle: other 107 % of control | dose: 200.0 mg/kg/injection, schedule: Q01DX009 (ip), vehicle: other 100 % of control | dose: 400.0 mg/kg/injection, schedule: Q01DX009 (ip), vehicle: other 102 % of control

CCOC(=O)C(N)CCSSCCC(N)C(=O)OCC (stereo unspecified)
inactive: dose: 177.0 mg/kg/injection, schedule: Q01DX001 (ip), vehicle: saline 92 % of control | dose: 267.0 mg/kg/injection, schedule: Q01DX001 (ip), vehicle: saline 92 % of control | dose: 400.0 mg/kg/injection, schedule: Q01DX001 (ip), vehicle: saline 95 % of control | dose: 600.0 mg/kg/injection, schedule: Q01DX001 (ip), vehicle: saline 104 % of control

CCCCC(CC)C1OC(=O)C(C)O1 (stereo unspecified)
inactive: [10] 100 % of control | [3] 102 % of control | [11] 104 % of control | [4] 100 % of control | [12] 105 % of control | [5] 102 % of control

O=c1[nH]c2c(N3CCOCC3)cccc2o1
inactive: [6] 93 % of control | [7] 97 % of control | [8] 97 % of control

c1ccc2c(c1)CC([CH2][Hg][CH2]C1Cc3ccccc3O1)O2 (stereo unspecified)
inactive: [16] 101 % of control | [17] 95 % of control

O=C(Nc1ccc(C(=O)O)cc1)Nc1cc([N+](=O)[O-])ccc1F
inactive: [3] 92 % of control | [4] 94 % of control | [5] 94 % of control
